Test results reported in US5164507A, “Antibiotic pyridine compound” (Meiji Seika Kaisha Ltd., priority 1990, dated 1992).
Counter-ions that a name gives are not always drawn.

Assays:
[1] = system: Candida glabrata IFO-0622; experiment: MIC (minimum growth inhibitory concentration) on test microorganisms; format: cell-based; conditions: Nakaseomyces glabratus, IFO0622
Source text: (§1) Minimum growth inhibitory concentrations (MIC) of a hydrochloride of substance SF 2698 on various test microorganisms are shown in Table 1 below.

Candida albicans M9001 = experiment: as above; format: cell-based
Source text: as §1

Candida utilis M9007 = experiment: as above; format: cell-based; conditions: Williopsis jadinii
Source text: as §1

[2] = system: Cryptococcus neoformans M9010; experiment: as above; format: cell-based
Source text: as §1

[3] = system: Candida glabrata IFO-0005; experiment: as above; format: cell-based; conditions: Nakaseomyces glabratus, IFO0005
Source text: as §1

Solubility = format: physicochemical
mice = experiment: toxicity by intravenous injection to mice; format: in vivo; conditions: dose of 100 mg/kg
Source text: Further, toxicity of a hydrochloride of substance SF2698 was examined by administering to mice the test compound by intravenous injection.

eumycetes = experiment: antimicrobial activity (Table 1, summary); format: cell-based; conditions: against certain kinds of eumycetes, from Table 1
Source text: as §1

N=C1C=CCC(C(=O)O)N1 (stereo not shown) [hydrochloride of substance SF 2698]
MIC [1]: 0.78 µg/mL | MIC (Candida albicans M9001): > 100 µg/mL | MIC (Candida utilis M9007): 12.5 µg/mL | MIC [2]: > 100 µg/mL | MIC [3]: 0.2 µg/mL | Solubility (Solubility; in methanol): soluble | Solubility (Solubility; in organic solvents, e.g., ethyl acetate): insoluble | Solubility (Solubility; in water): soluble | case of death (mice): no case of death | antimicrobial activity (eumycetes): exhibits antimicrobial activity against certain kinds of eumycetes
